Consider one compound from article PMC4671658, “Release of 50 new, drug-like compounds and their computational target predictions for open source anti-tubercular drug discovery” (PLoS ONE, 2015).

In brackets after ≈: the same amount, converted by molar mass.

For the assay, the system named is clinical isolate of M.tuberculosis resistant to isoniazid.

For `O=C(NCc1ccco1)N1CCN(Cc2ccc(Cl)s2)CC1` [TCMDC-143653], the “MIC against clinical isolate resistant to isoniazid” value was 1.6 µM (≈ 0.544 µg/mL).
